Patent US5679638A, “Method for treating a tumor with a chemotherapeutic agent” (Biopure Corporation, priority 1993, dated 1997)

Columns and labels:
Lewis lung carcinoma = Lewis lung carcinoma growth delay; format: in vivo, mouse (male C57BL); conditions: for Lewis lung carcinoma growth delay, Mean Days: NSAID days 4-18; for Increase of growth delay by addition of UPHS: drug + UPHS vs drug
Experimental: (§1) The Lewis lung tumor was carried in male C57BL mice (Taconic Laboratories, Germantown, N.Y.). For the experiments, 2×10^6 tumor cells prepared from a brei of several stock tumors were implanted subctaneously into the legs of male mice aged 8-10 weeks. […] Animals bearing Lewis lung tumors were treated daily with intraperitoneal Mino (10 mg/kg), Diflun (15 mg/kg) or Sulin (15 mg/kg) on days 4-18 following tumor implantation. When the tumors had reached a volume of approximately 100 mm^3 (day 7 after tumor cell implantation), cytotoxic therapy was initiated.
(§2) Therapy consisted of treatment with an antitumor alkylating agent, an antitumor antimetabolite, a non-steroidal anti-inflammatory drug (NSAID) and/or UPHS. […] CTX therapy consisted of three successive 150 mg/kg CTX doses administered by intraperitoneal injections on days 7, 9 and 11. BCNU therapy consisted of three successive 15 mg/Kg BCNU doses administered by intraperitoneal injections on days 7, 9 and 11. Therapy with the antimetabolite 5-fluorouracil(5-FU) consisted of 4 successive 40 mg/kg 5-FU doses administered by intraperitoneal injections daily on days 7 to 11. The 5-FU was purchased from Sigma Chemical Co., St. Louis, Mo. Fourteen doses of 10 mg/kg of NSAID were administered daily by intraperitoneal injections on days 4 to 18. UPHS was injected into the tail vein in 8 ml/kg doses daily on days 7-11.
The progress of each tumor was measured thrice weekly until it had reached a volume of 500 mm^3. Tumor growth delay was calculated as the number of days required for each treated tumor to reach a volume of 500 mm^3 as compared with untreated control tumors. Each treatment group comprised six animals and the experiment was repeated three times.
On the twentieth day after the subcutaneous tumor implantation, the delay in Lewis Lung Carcinoma tumor growth was evaluated. Tumor growth delay data is presented as the mean value ±SE calculated for the treatment group as compared with the control group.

[1] = system: Lewis lung carcinoma lung metastases; assay: Lung metastases of Lewis lung carcinoma; format: in vivo, mouse (male C57BL); design: Lung Metastases: unit not given here
Experimental: as §1
as §2, with “7-11. […]” for “7-11.”

[2] = system: intracranial 9L gliosarcoma; assay: Life span of rats with intracranial 9L gliosarcoma; format: in vivo, rat (male Fischer 344); conditions: for % Increased from Control (life span) / Survival Days: Table II; for % Increased from Control (life span) / Increase in life span with UPHS prior to the drug therapy: vs untreated control; for Survival Days: control 26 ± 2.2 days, CDDP 8 mg/kg day 7, BCNU 3 x 15, CTX or IFOS 3 x 100 mg/kg days 7, 9, 11, UPHS 8 ml/kg; for Significance of increase in life span, drug alone: 25% or more is therapeutically significant; for Effectiveness against intracranial 9L tumors: relative statement among BCNU, CTX, CDDP, IFOS
Experimental: The 9L gliosarcoma (9L) cells were obtained as a gift of 9L/SF gliosarcoma cells from Dr. Dennis Dean, University of California, San Francisco. These cells were maintained in culture in .varies.-MEM (Grand Island Biological Co., Grand Island, N.Y.) and supplemented with 10% fetal bovine serum (Sterile Systems, Inc., Logan, Utah) and with antibiotics. The 9L cells (4×10^4) in 10 μL of media without serum were implanted intracranially in male Fischer 344 rats (Taconic Farms, Germantown, N.Y.) weighing 200-250 gm on day 0. Each rat was anesthetized with sodium pentobarbital. A midline scalp incision was made and a hole was bored through the skull with 23 gauge needle at a point 2 mm lateral to the midline. The cell suspension was injected into the right frontal lobe at a depth of 3 mm from the dural surface. The needle was removed and the hole filled with dental cement. The scalp was sealed with a surgical clip. Two days later 9L cells (2×10^6) were implanted subcutaneously into the flank of each animal. When the tumors were approximately 100 mm^3 in volume, 7 days after tumor cell implantation, 8 ml/kg of UPHS was injected via the tail vein. After injecting the UPHS, administration of chemotherapeutic agents was initiated. […] BCNU therapy consisted of three 15 mg/kg BCNU doses administered by intraperitoneal injection days 7, 9 and 11. CTX and ifosfamide (IFOS) therapy consisted of three 100 mg/kg CTX or IFOS doses administered by intraperitoneal injection on days 7, 9 and 11. For the BCNU, CTX and IFOS therapies, UPHS was intravenously administered prior to each chemotherapeutic agent injection on days 7, 9 and 11. The IFOS was purchased from the Dana-Farber Cancer Institute. Survival of animals was monitored daily. Animals that were moribund or unable to reach food or water were killed by CO2 inhalation.
The effect of the treatments on the growth of the intracranial tumor was determined by the increase in life span of treated groups compared with the untreated controls. A percentage increase in life span of 25% or more is therapeutically significant.

[3] = WITH UPHS (8 ml/kg daily days 7-11), CDDP or PAM 10 mg/kg, CTX 3 x 150, BCNU 3 x 15, 5-FU 40 mg/kg
[4] = WITHOUT UPHS, CDDP or PAM 10 mg/kg day 7, CTX 3 x 150, BCNU 3 x 15 mg/kg days 7, 9, 11, 5-FU 40 mg/kg
[5] = intracranial (life span) and subcutaneous (growth delay) 9L tumors

Row | Compound | Lewis lung carcinoma growth delay, Mean Days (Lewis lung carcinoma; [3]) | Lewis lung carcinoma growth delay, Mean Days (Lewis lung carcinoma; [4]) | Increase of growth delay by addition of UPHS (Lewis lung carcinoma) | Lung Metastases ([1]; WITH UPHS) | Lung Metastases (% Large) ([1]; WITH UPHS) | Lung Metastases ([1]; WITHOUT UPHS) | Lung Metastases (% Large) ([1]; WITHOUT UPHS) | % Increased from Control (life span) [2] | Survival Days [2] | Increase in life span with UPHS prior to the drug therapy [2] | Significance of increase in life span, drug alone [2] | Increase in therapeutic response upon addition of UPHS ([2]; rat, in vivo, sc) | Effectiveness against intracranial 9L tumors [2] | Increase in therapeutic response upon addition of UPHS [2, 5] | Tumor growth delay relative to other drugs (Lewis lung carcinoma; vs CDDP, PAM, BCNU or 5-FU)
1 | O=NN(CCCl)C(=O)NCCCl [BCNU, N,N-bis(2-chloroethyl)-N-nitrosourea] | 5.3 ± 0.5 days | 3.6 ± 0.4 days | also enhanced, to a lesser degree | 9 | 61% | 15.5 | 53% | 22% | 31.6 days | 38% | did not reach significance | improved to a greater degree, as determined by increase in life span, against the intracranial tumor than against the subcutaneous tumor | moderately effective against the intracranial 9L tumors |  | 
2 | N.N.[Cl][Pt][Cl] [CDDP, cis-diaminodichloroplatinum(II)] | 5.7 ± 0.4 days | 4.5 ± 0.3 days | also enhanced, to a lesser degree | 13 | 40% | 13 | 58% | 29% | 33.6 days | 46% | significant increase in life span |  | very effective against both subcutaneous and intracranial 9L tumors | improved to a greater degree, as determined by increase in life span, against the intracranial tumor than against the subcutaneous tumor | 
3 | O=P1(N(CCCl)CCCl)NCCCO1 (centres unmarked) [CTX, Cyclophosphamide] | 43.1 ± 2.9 days | 21.5 ± 1.7 days | more than two-fold | 8 | 40% | 12 | 40% | 20% | 31.3 days | 43% | did not reach significance |  | least effective treatments for intracranial 9L tumors | greatest increases in therapeutic response upon addition of UPHS | substantially longer than that resulting from CDDP, PAM, BCNU or 5-FU
4 | N[C@@H](Cc1ccc(N(CCCl)CCCl)cc1)C(=O)O [PAM, Melphalan] | 6.8 ± 0.4 days | 2.7 ± 0.3 days | more than two-fold | 10 | 50% | 13 | 48% |  |  |  |  |  |  |  | 
